Source: ChEMBL document CHEMBL1140820, “beta-N-Biaryl ether sulfonamide hydroxamates as potent gelatinase inhibitors: part 2. Optimization of alpha-amino substituents” (Bioorg Med Chem Lett, 2008)

Tests used:
[1] = target: Matrix metalloproteinase-9 (Homo sapiens, UniProt P14780); assay: Inhibition of MMP9
[2] = target: 72 kDa type IV collagenase (Homo sapiens, UniProt P08253); assay: Inhibition of MMP2
Interstitial collagenase = target: T1, Interstitial collagenase (Homo sapiens, UniProt P03956); assay: Inhibition of MMP1
T1 sequence (P03956 whole entry): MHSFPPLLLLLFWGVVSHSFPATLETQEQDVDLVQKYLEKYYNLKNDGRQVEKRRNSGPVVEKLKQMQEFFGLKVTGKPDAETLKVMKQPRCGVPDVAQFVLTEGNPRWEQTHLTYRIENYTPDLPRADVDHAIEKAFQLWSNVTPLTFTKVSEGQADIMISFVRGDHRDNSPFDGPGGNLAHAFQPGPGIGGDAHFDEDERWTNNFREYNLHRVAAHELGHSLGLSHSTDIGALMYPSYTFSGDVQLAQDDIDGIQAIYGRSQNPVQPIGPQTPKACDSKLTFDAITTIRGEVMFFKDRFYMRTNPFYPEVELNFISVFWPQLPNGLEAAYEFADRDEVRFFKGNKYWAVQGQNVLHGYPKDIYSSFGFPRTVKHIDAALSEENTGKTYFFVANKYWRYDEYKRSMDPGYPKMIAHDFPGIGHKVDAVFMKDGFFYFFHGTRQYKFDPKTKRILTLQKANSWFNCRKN

[3] = Metabolic stability in human liver microsomes assessed as half life […]; format: ADME, Microsome
[4] = Volume of distribution at steady state in rat at 0.5 mg/kg, iv; format: ADME, organism-based; parameters: dose 0.5 mg/kg, route intravenous; conditions: in vivo, read-out: Vdss
[5] = Aqueous solubility at pH 2.0; format: physicochemical
[6] = Cmax in rat at 0.5 mg/kg, iv; format: ADME, organism-based; parameters: dose 0.5 mg/kg, route intravenous; conditions: in vivo
[7] = Clearance in rat at 0.5 mg/kg, iv; format: ADME, organism-based; parameters: dose 0.5 mg/kg, route intravenous; conditions: in vivo
[8] = Metabolic stability in rat liver microsomes assessed as half life […]; format: ADME, Microsome
[9] = AUC in rat at 0.5 mg/kg, iv; format: ADME, organism-based; parameters: dose 0.5 mg/kg, route intravenous; conditions: plasma
[10] = Apparent elimination half life in rat at 0.5 mg/kg, iv; format: ADME, organism-based; parameters: dose 0.5 mg/kg, route intravenous; conditions: in vivo, read-out: beta t1/2 (converted)
[11] = Protein binding in rat at 0.5 mg/kg, iv; format: ADME, organism-based; parameters: dose 0.5 mg/kg, route intravenous; conditions: plasma, read-out: PPB (converted)
[12] = Selectivity for MMP9 over MMP2
[13] = Aqueous solubility at pH 7.0; format: physicochemical
Collagenase 3 = Collagenase 3 (Homo sapiens, UniProt P45452); assay: Inhibition of MMP13
Rattus norvegicus = assay: Reduction of ischemia induced brain edema in Sprague-Dawley rat tMCAo model at 2 mg/kg, iv after 3 hrs; format: functional; parameters: scale not given: the % may be the effect or the level left

Chain of Matrix metalloproteinase-9 (P14780 whole entry): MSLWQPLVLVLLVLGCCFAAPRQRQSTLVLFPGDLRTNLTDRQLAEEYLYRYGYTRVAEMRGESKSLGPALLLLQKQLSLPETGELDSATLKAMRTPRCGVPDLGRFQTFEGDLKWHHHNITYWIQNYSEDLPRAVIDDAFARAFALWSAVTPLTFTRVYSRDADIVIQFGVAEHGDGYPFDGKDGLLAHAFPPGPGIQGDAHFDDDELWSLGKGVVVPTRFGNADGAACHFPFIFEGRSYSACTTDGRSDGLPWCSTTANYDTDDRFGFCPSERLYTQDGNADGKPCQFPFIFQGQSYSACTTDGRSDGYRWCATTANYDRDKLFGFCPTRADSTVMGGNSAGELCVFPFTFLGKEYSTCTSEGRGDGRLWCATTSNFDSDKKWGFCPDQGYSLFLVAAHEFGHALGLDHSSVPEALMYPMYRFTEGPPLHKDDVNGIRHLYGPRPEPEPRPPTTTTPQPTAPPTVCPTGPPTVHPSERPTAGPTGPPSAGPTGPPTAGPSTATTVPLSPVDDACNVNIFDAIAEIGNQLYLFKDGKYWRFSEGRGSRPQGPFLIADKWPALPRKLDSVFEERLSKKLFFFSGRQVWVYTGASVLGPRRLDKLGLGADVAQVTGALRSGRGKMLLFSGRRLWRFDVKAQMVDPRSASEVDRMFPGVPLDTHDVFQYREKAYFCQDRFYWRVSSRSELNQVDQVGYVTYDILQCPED
Chain of 72 kDa type IV collagenase (P08253 whole entry): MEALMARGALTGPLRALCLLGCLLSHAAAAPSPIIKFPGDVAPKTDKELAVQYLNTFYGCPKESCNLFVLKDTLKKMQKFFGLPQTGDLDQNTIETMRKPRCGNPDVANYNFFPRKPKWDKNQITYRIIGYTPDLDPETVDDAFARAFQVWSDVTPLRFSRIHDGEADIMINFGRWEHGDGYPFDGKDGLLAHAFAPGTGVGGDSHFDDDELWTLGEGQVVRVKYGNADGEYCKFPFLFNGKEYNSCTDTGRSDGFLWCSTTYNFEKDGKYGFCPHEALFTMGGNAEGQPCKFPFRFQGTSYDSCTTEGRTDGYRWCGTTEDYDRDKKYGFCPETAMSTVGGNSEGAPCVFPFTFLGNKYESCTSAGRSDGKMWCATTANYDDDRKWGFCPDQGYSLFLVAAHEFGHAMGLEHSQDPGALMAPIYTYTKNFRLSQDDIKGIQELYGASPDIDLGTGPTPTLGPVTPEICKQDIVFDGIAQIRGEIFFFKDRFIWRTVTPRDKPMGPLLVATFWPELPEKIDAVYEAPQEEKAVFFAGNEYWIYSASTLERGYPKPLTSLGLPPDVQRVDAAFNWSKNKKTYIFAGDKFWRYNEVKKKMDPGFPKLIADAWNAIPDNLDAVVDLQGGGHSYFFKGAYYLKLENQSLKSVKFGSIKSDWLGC

SMILES | IC50 [1] [nM] | IC50 [2] [nM] | Ratio IC50 [12] | other results
Cc1ccc(Oc2ccc(N(C[C@H](NC(C)C)C(=O)O)S(C)(=O)=O)cc2)cc1 | > 10000 | > 10000 | – | IC50 (Interstitial collagenase): > 10000 nM
Cc1ccc(Oc2ccc(N(C[C@@H](C(=O)NO)N3CCOCC3)S(C)(=O)=O)cc2)cc1 | 1.9 | 5.2 | 2.7 | half-life [3]: > 120 min; Vd [4]: 0.66 L/kg; solubility [5]: > 70 µg/mL; Cmax [6]: 3700 nM; clearance [7]: 12.8 mL/min/kg; half-life [8]: 10 min; AUC [9]: 670 ng·h/mL; half-life [10]: 360 min; fraction unbound [11]: 0.42; solubility [13]: > 70 µg/mL
Cc1ccc(Oc2ccc(N(C[C@H](NC3CCCC3)C(=O)NO)S(C)(=O)=O)cc2)cc1 | – | – | 5.9 | –
CS(=O)(=O)N(C[C@H](O)C(=O)NO)c1ccc(Oc2ccc(C(F)(F)F)cc2)cc1 | 14 | 139 | 9.9 | IC50 (Interstitial collagenase): > 10000 nM
CC(C)N(Cc1ccccc1)[C@@H](CN(c1ccc(Oc2ccc(C(F)(F)F)cc2)cc1)S(C)(=O)=O)C(=O)NO | – | – | 4.1 | –
Cc1ccc(Oc2ccc(N(C[C@H](NCc3ccccc3)C(=O)NO)S(C)(=O)=O)cc2)cc1 | – | – | 28.4 | –
Cc1ccc(Oc2ccc(N(C[C@H](N[C@@H](C)c3ccccc3)C(=O)NO)S(C)(=O)=O)cc2)cc1 | – | 12 | 22.2 | IC50 (Interstitial collagenase): > 10000 nM
Cc1ccc(Oc2ccc(N(C[C@H](NC(=O)C(C)C)C(=O)NO)S(C)(=O)=O)cc2)cc1 | 5.4 | 70 | 13 | –
O=C1NC(=O)C2(CCC(=O)N2c2ccc(Oc3ccc(Cl)cc3)cc2)C(=O)N1 | – | – | – | Ki (Collagenase 3): 1 nM; Ki [1]: 0.7 nM; Ki [2]: 0.4 nM
C[C@@H]1CN([C@@H](CN(c2ccc(Oc3ccc(C(F)(F)F)cc3)cc2)S(C)(=O)=O)C(=O)NO)C[C@H](C)O1 | 1.1 | 5.6 | 5.1 | –
Cc1ccc(Oc2ccc(N(C[C@H](N)C(=O)NO)S(C)(=O)=O)cc2)cc1 | – | – | 5.5 | –
COc1cccc(N[C@@H](CN(c2ccc(Oc3ccc(C)cc3)cc2)S(C)(=O)=O)C(=O)NO)c1 | – | – | 43.5 | IC50 (Interstitial collagenase): > 10000 nM
CS(=O)(=O)N(C[C@@H](C(=O)NO)N1CCN(c2ccc(Cl)cc2)CC1)c1ccc(Oc2ccc(C(F)(F)F)cc2)cc1 | – | – | 2.7 | –
CC(C)N(C)[C@@H](CN(c1ccc(Oc2ccc(C(F)(F)F)cc2)cc1)S(C)(=O)=O)C(=O)NO | 8.8 | 24 | 2.7 | –
CS(=O)(=O)N(C[C@@H](C(=O)NO)N1CCS(=O)(=O)CC1)c1ccc(Oc2ccc(C(F)(F)F)cc2)cc1 | 1.7 | 4.8 | 2.8 | –
CS(=O)(=O)N(C[C@@H](C(=O)NO)N1CCC(O)CC1)c1ccc(Oc2ccc(C(F)(F)F)cc2)cc1 | 1.9 | 5.7 | 3 | –
Cc1ccc(Oc2ccc(N(C[C@H](Nc3ccc4ccccc4c3)C(=O)NO)S(C)(=O)=O)cc2)cc1 | – | 1400 | 16.6 | –
CS(=O)(=O)N(C[C@@H](C(=O)NO)N1CCOCC1)c1ccc(Oc2ccc(Cl)cc2)cc1 | – | – | 2.8 | –
Cc1ccc(Oc2ccc(N(C[C@H](Nc3cccc(Cl)c3)C(=O)NO)S(C)(=O)=O)cc2)cc1 | 20 | – | 16.6 | –
Cc1ccc(Oc2ccc(N(C[C@H](Nc3ccc(F)cc3)C(=O)NO)S(C)(=O)=O)cc2)cc1 | 1.3 | – | 49.2 | –
CC(C)N(CCNC(=O)OCc1ccccc1)[C@@H](CN(c1ccc(Oc2ccc(C(F)(F)F)cc2)cc1)S(C)(=O)=O)C(=O)NO | – | – | 9 | –

SMILES | IC50 [1] [nM] | IC50 [2] [nM] | Ratio IC50 [12] | other results
Cc1ccc(Oc2ccc(N(C[C@H](NCc3cccnc3)C(=O)NO)S(C)(=O)=O)cc2)cc1 | 2.8 | 17 | 6.1 | –
Cc1ccc(Oc2ccc(N(C[C@H](N[C@H](C)c3ccccc3)C(=O)NO)S(C)(=O)=O)cc2)cc1 | 1.5 | – | 16 | –
CS(=O)(=O)N(C[C@@H](C(=O)NO)N1CCC(c2ccccc2)CC1)c1ccc(Oc2ccc(C(F)(F)F)cc2)cc1 | – | – | 2.7 | –
Cc1ccc(Oc2ccc(N(C[C@H](O)C(=O)NO)S(C)(=O)=O)cc2)cc1 | 7.8 | 61 | – | –
Cc1ccc(Oc2ccc(N(C[C@H](NCc3ccccn3)C(=O)NO)S(C)(=O)=O)cc2)cc1 | – | – | 3.6 | –
CNC(=O)C1CCN([C@@H](CN(c2ccc(Oc3ccc(C(F)(F)F)cc3)cc2)S(C)(=O)=O)C(=O)NO)CC1 | 2.5 | 5.5 | 2.2 | –
Cc1ccc(Oc2ccc(N(C[C@H](NCc3ccncc3)C(=O)NO)S(C)(=O)=O)cc2)cc1 | 1.8 | – | 5.3 | –
CS(=O)(=O)N1CCN([C@@H](CN(c2ccc(Oc3ccc(C(F)(F)F)cc3)cc2)S(C)(=O)=O)C(=O)NO)CC1 | 3.2 | 9.9 | 3.1 | –
Cc1ccc(Oc2ccc(N(C[C@@H](NC(C)C)C(=O)NO)S(C)(=O)=O)cc2)cc1 | 31 | 178 | 5.7 | –
CC(C)N[C@@H](CN(c1ccc(Oc2ccc(C(F)(F)F)cc2)cc1)S(C)(=O)=O)C(=O)NO | 2.4 | – | 3.8 | IC50 (Interstitial collagenase): > 10000 nM
Cc1ccc(Oc2ccc(N(C[C@@H](C(=O)NO)N3C[C@@H](C)O[C@@H](C)C3)S(C)(=O)=O)cc2)cc1 | – | – | 4.1 | –
C[C@@H]1CN([C@@H](CN(c2ccc(Oc3ccc(Cl)cc3)cc2)S(C)(=O)=O)C(=O)NO)C[C@H](C)O1 | 0.46 | 2.5 | 5.4 | –
CS(=O)(=O)N(C[C@@H](C(=O)NO)N1CCCCC1)c1ccc(Oc2ccc(C(F)(F)F)cc2)cc1 | 2.3 | – | 3.3 | –
CS(=O)(=O)N(C[C@H](O)C(=O)NO)c1ccc(Oc2ccc(Cl)cc2)cc1 | 4.7 | 35 | 7.4 | –
Cc1ccc(Oc2ccc(N(C[C@H](NC(C)C)C(=O)NO)S(C)(=O)=O)cc2)cc1 | 0.52 | 4 | 7.7 | half-life [3]: 49 min; Vd [4]: 0.49 L/kg; Cmax [6]: 2680 nM; clearance [7]: 35 mL/min/kg; half-life [8]: < 9 min; AUC [9]: 250 ng·h/mL; half-life [10]: 9.6 min; fraction unbound [11]: 0.16
Cc1ccc(Oc2ccc(N(C[C@H](C(=O)NO)N3CCOCC3)S(C)(=O)=O)cc2)cc1 | – | – | 4.5 | –
CS(=O)(=O)N(C[C@@H](C(=O)NO)N1CCOCC1)c1ccc(Oc2ccc(C(F)(F)F)cc2)cc1 | – | – | 3.2 | half-life [3]: > 120 min; Vd [4]: 0.99 L/kg; solubility [5]: > 70 µg/mL; Cmax [6]: 860 nM; clearance [7]: 65.4 mL/min/kg; half-life [8]: > 120 min; AUC [9]: 130 ng·h/mL; half-life [10]: 12 min; Activity (Rattus norvegicus): 3.3%; fraction unbound [11]: 0.26; solubility [13]: > 70 µg/mL
Cc1ccc(Oc2ccc(N(C[C@H](Nc3ccccc3)C(=O)NO)S(C)(=O)=O)cc2)cc1 | 0.52 | 13 | 25 | –
Cc1ccc(Oc2ccc(N(C[C@H](NCC(C)C)C(=O)NO)S(C)(=O)=O)cc2)cc1 | 1.3 | 11 | 8.8 | IC50 (Interstitial collagenase): > 10000 nM
CC(=O)N1CCN([C@@H](CN(c2ccc(Oc3ccc(C(F)(F)F)cc3)cc2)S(C)(=O)=O)C(=O)NO)CC1 | – | – | 1.8 | –
Cc1ccc(Oc2ccc(N(C[C@H](Nc3cccc(F)c3)C(=O)NO)S(C)(=O)=O)cc2)cc1 | 0.89 | – | 59.6 | half-life [3]: < 9 min; Vd [4]: 2.89 L/kg; Cmax [6]: 620 nM; clearance [7]: 66.9 mL/min/kg; half-life [8]: < 9 min; AUC [9]: 130 ng·h/mL; half-life [10]: 36 min; fraction unbound [11]: 0.003
